Results as given in patent publication US20100190187A1, “Screening Assays for Antagonists and Analyses of Cardiac Hypertrophy” (The Regents of the University of Michigan Office of …, priority 2006, published 2010).

How the values were obtained:
Assay type in all cases: cell-based, murine
HL-1 cells [1] = assay: Western blot of hypertrophy biomarkers in HL-1 cells; details: for dose dependence of expression of the VDR: FIG. 13(C), compared to control
Experimental: Screening assays employing incubation of VDR containing cells with and without a test compound. Cell extracts can be prepared and screened for increases or decreases of cardiac hypertrophy biomarkers or increase in PKC activity, VDR expression, myotrophin expression, using antibody detection methods described herein. Equivalent protein quantities of test compound cell extracts and control cell extracts can be loaded onto continuous or discontinuous PAGE gels and electrophoresed from 15 min to 24 hours, depending on the size of the gel. Following electrophoresis, the proteins can be electrophoretically transferred to PVDF membranes and probed with antibodies specific for example to Protein Kinase C and downstream regulated products c-myc, VDR, ANP, calbindin 9 and 32 and myotrophin. Bound antibodies can be visualized using chemiluminescent detection, chromatic detection or any method of detection of labeled membrane bound antibodies otherwise known as Western blotting. […] In FIG. 13(A), Western blots reveal that when HL-1 cells are incubated in the presence of a control sample (left lane) and a test compound (right lane). In some embodiments, for example, Vitamin D3 analog or metabolite, can be the test compound, or Vitamin D3 can be a control to measure the activity of the test compound. As shown in FIG. 13(A), Vitamin D3 reduces the expression of ANP, c-myc and calbindin 9 as compared to cells not incubated in the presence if Vitamin D3. […] Vitamin D3 has a positive up-regulating effect upon the expression of the VDR in HL-1 cells.
Treated and control samples of HL-1 cells are trypsinized and removed from flasks. Cell counts are performed under microscope with a Fisher hemacytometer. Samples are centrifuged at 3000 RPM for 2 minutes to obtain a pellet, which is then re-suspended in an SDS-leupeptin sample buffer (SB). This whole cell lysate can then be boiled for 15 minutes, separated into working aliquots, and stored at −20° C. for analysis. Standard Bradford Protein Determination is then performed on all samples. Samples are then electrophoresed as described in Example 4. Following electrophoresis, protein is transferred onto a PVDF (Millipore) membrane. After blocking the membrane for one hour with 5% milk in TBS containing 0.05% Tween 20 (Sigma), the blots are incubated with primary and secondary antibodies according to the dilutions listed below. The blot is washed three times in TBS/0.5% Tween 20 after each incubation, followed by one final wash in TBS. The membrane can then be treated with ECL developer (Amersham Biosciences) and exposed to Kodak Biomax XAR film. To confirm equal loading of protein into the wells each blot can be stripped and re-probed with HRP conjugated goat anti-mouse actin antibody (sc-1616HRP; Santa Cruz Biotechnology Co; 1:1000). The primary antibodies that can be used include rabbit anti-mouse VDR (sc-1008; Santa Cruz Bio; 1:200 dilution); rabbit anti-mouse ANP (AB 5490; Chemicon; 1:500 dilution), mouse monoclonal anti-myotrophin (V11220; BD Transduction Laboratory; 1:1000), rabbit anti-mouse c-myc (sc-764, Santa Cruz Bio; 1:100), and goat anti-mouse calbindin-9 (sc-18038, Santa Cruz Bio; 1:100). The secondary antibodies which can be used include HRP conjugated goat anti-rabbit (AP 132P, Chemicon; 1:1000) for VDR, ANP, and c-myc. HRP conjugated goat anti-mouse (A 2304, Sigma; 1:1000), and bovine anti-goat Ab (sc2350, Santa Cruz Bio; 1:250), for myotrophin and calbindin-9, respectively.

HL-1 cells [2] = assay: HL-1 cell growth and proliferation; details: compared to HL-1 cells incubated with vehicle, FIG. 10
Experimental: (§1) HL-1 cells are obtained from Dr. W. C. Claycomb, Louisiana State University Medical Center, New Orleans, La. HL-1 cells (passages 55-75) are maintained at 37° C. under a 5% C02/air atmosphere in Claycomb medium (JRL Bioscience) supplemented with 10% fetal bovine serum, 0.29 mg/mL L-glutamine, 100 units/mL penicillin, 100 μg/mL streptomycin (all Gibco), and 0.1 mM norepinephrine (Sigma). The medium can be replaced approximately every 24 hours. HL-1 cells were grown in T25 culture flasks which were precoated overnight with 2 μg/cm fibronectin/0.02% gelatin solution. […]
HL-1 cells are grown in 10% FCS-supplemented medium or medium supplemented with 1% ITS and treated with either 0.1% EtOH (control vehicle), 1, 10 or 100 nM 1,25(OH) 2D3, 100 nM PMA or 1 mM PMA or 1 mM 24,25(OH) 2D3 or 25(OH)D3 for 2 or 4 days. At each time point the myocytes are removed from the dish using a Trypsin-EDTA solution (Sigma Chemical, St. Louis, Mo.) and counted using a Coulter Counter (Model ZF, Coulter Electronics, Hialeah, Fla.). Protein levels can be determined after 2 days using the Bradford protein assay (14). […] The HL-1 cells can then be examined on a flow cytometer (Coulter Elite, Coulter Electronics, Hialeah, Fla.) and cell cycle distribution can be determined by using MODFIT (v. 5.2).

HL-1 cells [3] = assay: HL-1 cell morphology by light microscopy; details: FIG. 11, versus control vehicle
Experimental: In some embodiments, screening assays can be included to determine whether the test compound can alter the structural morphology of the cardiac myocyte in cell culture. HL-1 cells can be incubated in the presence and absence of a test compound to determine whether structural changes can be observed by light microscopy.
as §1, with “solution. HL-1 cells were maintained until they reached confluence at which time the cells were removed by trypsinization and passed into another T25 culture flask coated with gelatin/fibronectin. Cells can be ultimately passed into T75 flasks to increase the number of cells prior to experimentation. Vitamin D experiments are performed in either T75 flasks, or Lab-Tech 2-well slides (for immunohistochemistry), 24 hours after a 1:2 split of confluent cells.” for “solution.”

C=C1CC[C@H](O)C/C1=C/C=C1\CCC[C@]2(C)[C@@H]([C@H](C)CCCC(C)C)CC[C@@H]12 [Vitamin D3]
levels of intracellular ANP (HL-1 cells [1]; FIG. 13(A)): significantly reduced levels
levels of intracellular Calbindin 9 (HL-1 cells [1]; FIG. 13(A)): significantly reduced levels
levels of intracellular c-myc (HL-1 cells [1]; FIG. 13(A)): significantly reduced levels
expression of the VDR (HL-1 cells [1]; FIG. 13(B), 1 and 24 hours post exposure): up-regulated
dose dependence of expression of the VDR (HL-1 cells [1]): dose dependent
dose dependence of expression of the VDR (HL-1 cells [1]; listed as Vitamin D 3): dose dependent induction of expression of VDR
inhibition of HL-1 growth / cellular proliferation (HL-1 cells [2]): dose dependent inhibition of cellular proliferation
inhibition of HL-1 growth / cellular proliferation (HL-1 cells [2]; listed as Vit D): dose dependent inhibition of HL-1 growth
structural morphology of HL-1 cells (HL-1 cells [3]): growth and presence of structural appendages called dendrites
